Legend:
RGS10 KD BV2 cells = experiment: TNF-α production after antioxidant treatment, RGS10 KD BV2 microglia (Meso-Scale Discovery immunoassay); type: cell-based, mouse; details: 5 mM, 18 hours
Experimental: (§1) BV2 cells are a type of microglial cell line that was originally derived from a C57/B16 mouse. BV2 cells were immortalized by v-raf/v-myc J2 retrovirus.
(§2) The role of RGS10 in regulating a response to inflammatory and metabolic stresses was assessed in microglia cells. BV2 cells were grown in culture and RGS10 expression in BV2 cells was diminished by CRISPR/Cas9 RGS10 knockout methods. Control cells were obtained from CRISPR/Cas9 controls.
(§3) Control and RGS10 KD BV2 cells were allocated into 2 test conditions. The 2 test conditions were 1) Control (no treatment) 2) N-acetylcysteine (NAC) treatment (5 mM). NAC is an antioxidant precursor. NAC is a precursor of L-cysteine that results in biosynthesis of glutathione. Glutathione is a powerful, naturally occurring antioxidant. NAC also acts directly as a scavenger of free radicals, especially oxygen radicals, illustrating extensive antioxidant properties of NAC treatment. NAC treatment in cells leads to a reduction in reactive oxidative species (ROS).
(§4) Cultured cells were subjected to test conditions for 18 hours and then assayed for production of TNF-α using an immunoassay (Meso-Scale Discovery). Values for TNF-α production in Control and RGS10 KD BV2 cells under Condition 1) were scaled to value of 1.0. Values for TNF-α production after NAC treatment were represented as a % of change relative to Condition 1) levels and were graphed in FIG. 3.

Control BV2 cells = experiment: TNF-α production after antioxidant treatment, Control BV2 microglia (Meso-Scale Discovery immunoassay); type: cell-based, mouse; details: 5 mM, 18 hours
Experimental: as §1, §2, §3, §4

CC(=O)N[C@@H](CS)C(=O)O [NAC, N-acetylcysteine]
TNF-α production after treatment vs no treatment (RGS10 KD BV2 cells): statistically significant reduction in level of TNF-α production | TNF-α production after treatment vs no treatment (Control BV2 cells): statistically significant reduction in level of TNF-α production
